Reference: publication PMC3924858 (Journal of medicinal chemistry, 2013)

Biological target: human mGlu5 receptor (Homo sapiens, UniProt P41594)
Sequence (P41594 21-1180 isoform P41594-2 limits assumed): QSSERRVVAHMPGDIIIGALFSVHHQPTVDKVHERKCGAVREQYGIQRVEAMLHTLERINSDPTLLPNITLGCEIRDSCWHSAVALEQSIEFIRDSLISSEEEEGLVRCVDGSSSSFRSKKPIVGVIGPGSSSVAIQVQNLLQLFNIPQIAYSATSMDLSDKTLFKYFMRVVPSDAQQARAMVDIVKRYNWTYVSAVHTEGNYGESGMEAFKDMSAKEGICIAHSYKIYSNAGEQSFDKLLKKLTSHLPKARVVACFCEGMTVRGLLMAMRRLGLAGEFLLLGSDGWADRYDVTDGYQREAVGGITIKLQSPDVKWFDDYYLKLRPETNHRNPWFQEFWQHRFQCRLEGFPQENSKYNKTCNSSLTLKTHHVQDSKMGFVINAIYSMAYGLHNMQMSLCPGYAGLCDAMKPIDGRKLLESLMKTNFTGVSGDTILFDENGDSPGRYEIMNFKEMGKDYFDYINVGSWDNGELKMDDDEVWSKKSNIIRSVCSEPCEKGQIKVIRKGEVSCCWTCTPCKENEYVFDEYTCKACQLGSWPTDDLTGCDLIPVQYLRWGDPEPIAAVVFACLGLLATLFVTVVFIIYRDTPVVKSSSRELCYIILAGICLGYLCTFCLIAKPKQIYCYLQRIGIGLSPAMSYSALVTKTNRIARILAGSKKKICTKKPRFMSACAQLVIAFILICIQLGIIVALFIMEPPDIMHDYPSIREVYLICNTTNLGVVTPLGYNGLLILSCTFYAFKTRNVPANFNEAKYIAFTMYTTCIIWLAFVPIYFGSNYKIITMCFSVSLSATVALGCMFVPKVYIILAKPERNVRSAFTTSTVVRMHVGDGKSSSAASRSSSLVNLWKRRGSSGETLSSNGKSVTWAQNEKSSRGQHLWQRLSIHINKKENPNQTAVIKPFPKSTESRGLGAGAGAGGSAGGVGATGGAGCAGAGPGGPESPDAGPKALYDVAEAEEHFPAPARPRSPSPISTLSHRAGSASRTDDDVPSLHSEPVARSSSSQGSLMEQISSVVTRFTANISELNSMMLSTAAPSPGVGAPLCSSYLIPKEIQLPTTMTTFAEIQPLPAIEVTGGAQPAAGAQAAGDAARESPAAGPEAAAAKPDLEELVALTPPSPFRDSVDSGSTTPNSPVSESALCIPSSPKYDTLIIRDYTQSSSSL

## O=C1c2sc(COc3ccccc3)nc2CCN1c1ccc(F)cn1 [16p, 5-(5-Fluoro-pyridin-2-yl)-2-phenoxymethyl-6,7-dihydro-5H-thiazolo[5,4-c]pyridin-4-one]
  Glu Max: 94 (89-99) %
